Results as given in US6664231B1, “Anti-fungal peptides” (priority 1993, dated 2003).

What was measured:
[1] = tested on: Candida albicans SLU-1 strain; test: Serum stability, anti-fungal activity after serum incubation by radial diffusion bioassay; format: in vitro ADME, rat or human serum
Method in brief: (§1)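 Anti-fungal activity against C. albicans SLU-1 was measured by radial diffusion on peptides recovered from serum. Recovery: 1 mg/mL peptide in equal volume of rat or human serum at 37° C, sampled at 0–4 h, C-18 extraction, HPLC, sequencing and ESI/MS.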

[2] = tested on: polyene-resistant (ATCC 38247), 5-fluorocytosine-resistant (ATCC 44373), azole-resistant (ATCC 62342), ketoconazole-resistant (ATCC 64124) C. albicans; test: Fungicidal activity on commercially-available drug-resistant Candida strains; format: cell-based, Candida albicans; conditions: ATCC 38247, 44373, 62342, 64124
Method: Further experiments were performed to determine the anti-fungal activity of Domain III derived peptides on commercially-available strains of Candida considered resistant to other anti-fungal agents: polyene-resistant C. albicans (ATCC Accession No. 38247), 5-fluorocytosine-resistant C. albicans (ATCC No. 44373), azole-resistant C. albicans (ATCC No. 62342), and ketoconazole-resistant C. albicans (ATCC No. 64124).

[3] = tested on: C. albicans designated CA-1, Strain SLU-1; conditions: designated CA-1, Strain SLU-1, 18 h
Method: In each broth assay screening procedure, a colony of C. albicans designated CA-1, Strain SLU-1 that was received from the laboratories of G. Matuschak and A. Lechner, St. Louis University Hospital, St. Louis, Mo., where the strain was maintained, was inoculated into a tube containing 5 mL Sabouraud Dextrose broth (2% dextrose, 1% neopeptone) and incubated overnight at 37° C. with shaking. The overnight culture was diluted 1:50 into 5 mL of fresh broth and incubated for 3 hours at 37° C. Organisms were pelleted by centrifugation in a Beckman J-6M centrifuge for 5 minutes at 3000 rpm (1500×g) and the pellets were resuspended in 5 mL phosphate buffered saline (PBS) and the optical density at 570 nm was determined. On the basis of the determination that one OD unit equals 3×10^7 colony forming units/mL, yeast cells were diluted to 2×10^6 cells/mL in Sabouraud Dextrose broth.
Domain III peptides derived from or based on BPI to be screened were originally constituted in Dulbecco's-PBS, were diluted to 100 μg/mL in broth and were serially diluted 2-fold into wells of a 96 well sterile, flat bottom, non-pyrogenic tissue culture plate (Costar, Cambridge, Mass.). All assays were performed in triplicate. 2×10^5 organisms were added at 100 μl per well; final volume was 200 μL/well; the plate was incubated on a shaker at 37° C. for 18 hours; and the optical densities for each well were read at 590 nm. […] The broth assay data may be set out in terms of minimum inhibitory concentration (MIC), i.e. the lowest concentration required to reduce the optical density at 590 nm to below 0.1.

[4] = Serum stability, anti-fungal activity after serum incubation by radial diffusion bioassay; format: in vitro ADME, rat or human serum; conditions: Activity in Serum t ½ (hr.)
Method in brief: as §1

[5] = format: physicochemical
Method: XMP.284 was soluble in water and unbuffered saline. XMP.284 was also soluble in 10 mM sodium phosphate, 150 mM sodium chloride pH 7. […] There was very little product loss, as measured by absorbance at 280 nm, in 0.15 M saline buffered with 10 mM acetate at pH 4, 5 or 6. […] Presently preferred is a formulation that includes 10 mM sodium acetate, 150 mM sodium chloride, pH 5.

Candida glabrata = format: cell-based
Method: (§2) In additional experiments, a fluorescence-activated cell sorter (FACS) based assay was developed to test the fungicidal activity of the peptides. […] Difco) agar. Several colonies were picked from the agar plate and inoculated into 5 mL of Sabouraud's Dextrose media in a sterile 10 mL polypropylene tube. The fungal cultures were incubated for about 18 hours at 30° C. […] The culture were centrifuged at 3000 rpm for 5 minutes (Sorvall RT 6000B). After centrifugation, the supernatant was decanted leaving the fungal pellets in the centrifuge tubes. The pellets were resuspended in 15 mL of SDB. Both suspensions were combined into one tube and mixed to generate a stock culture. […] After determining the concentration of the stock, appropriate dilutions were made with Sabouraud's Dextrose media to obtain 100 mL of 1×10^6 cell/mL. […] After the 1 hour incubation, all the tubes were centrifuged at 3000 rpm for 5 minutes. […] Louis, Mo.) in Dulbecco's PBS (DPBS, GIBCO, Grand Island, N.Y.) except the autofluorescence control, which was resuspended in DPBS alone. The tubes were mixed and incubated in the dark at room temperature for at least 20 minutes. […] The settings were adjusted appropriately to the following approximate parameters: Cells were analyzed (10,000 cells/tube) and their respective fluorescence determined. […] The population of dead (i.e., propidium iodide stained) fungal cells was determined by a fluorescence threshold between the negative control and positive control.

Candida lusitaniae = format: cell-based
Method: as §2

Candida parasilosis = format: cell-based
Method: as §2

Substance: H-KSKVGWLIQLFHKK-NH2 [XMP.13]
- Activity in Serum t ½ (hr.) [1]: indefinite
- Fungicidal activity on resistant strains [2]: not reduced
- minimum inhibitory concentration (MIC), lowest concentration required to reduce the optical density at 590 nm to below 0.1 [3]: 12.5 µg/mL

Substance: H-SKVKWLIQLFHKK-NH2 [XMP.284]
- half-life at 0.5 mg/mL [4]: 14.6 h
- solubility in the phosphate buffer on heating [5]: remained soluble
- solubility in water and unbuffered saline [5]: soluble
- Candida glabrata IC50 (Candida glabrata): 6.27 µg/mL
- Candida lusitaniae IC50 (Candida lusitaniae): 1.20 µg/mL
- Candida parasilosis IC50 (Candida parasilosis): 1.82 µg/mL
